Assay: xn = mol fraction of the nth substance listed
Details: Gas, Hot wire method

C [methane] + O=C=O
Details | thermal conductivity [W/m/K]
300 K, 724 kPa, x1 = 0.2493 | 0.02096
300 K, 727 kPa, x1 = 0.4994 | 0.02533
300 K, 730 kPa, x1 = 0.7496 | 0.03005
300 K, 1240 kPa, x1 = 0.7496 | 0.03027
300 K, 1241 kPa, x1 = 0.4994 | 0.02556
300 K, 1288 kPa, x1 = 0.2493 | 0.02125
300 K, 1748 kPa, x1 = 0.4994 | 0.02584
300 K, 1770 kPa, x1 = 0.7496 | 0.03051
300 K, 1835 kPa, x1 = 0.2493 | 0.02161
300 K, 2212 kPa, x1 = 0.4994 | 0.02613
300 K, 2245 kPa, x1 = 0.7496 | 0.03082
300 K, 2335 kPa, x1 = 0.2493 | 0.02197
300 K, 2700 kPa, x1 = 0.4994 | 0.02637
300 K, 2740 kPa, x1 = 0.7496 | 0.03109
300 K, 2820 kPa, x1 = 0.2493 | 0.02245
300 K, 3118 kPa, x1 = 0.4994 | 0.02681
300 K, 3220 kPa, x1 = 0.7496 | 0.03153
300 K, 3275 kPa, x1 = 0.2493 | 0.02287
300 K, 3550 kPa, x1 = 0.4994 | 0.02726
300 K, 3680 kPa, x1 = 0.7496 | 0.03188
300 K, 3730 kPa, x1 = 0.2493 | 0.02338
300 K, 4160 kPa, x1 = 0.2493 | 0.02399
300 K, 4160 kPa, x1 = 0.7496 | 0.03236
300 K, 4550 kPa, x1 = 0.2493 | 0.02452
300 K, 4560 kPa, x1 = 0.7496 | 0.03271
300 K, 4660 kPa, x1 = 0.4994 | 0.02839
300 K, 4920 kPa, x1 = 0.2493 | 0.0252
300 K, 5000 kPa, x1 = 0.7496 | 0.03324
300 K, 5670 kPa, x1 = 0.4994 | 0.02959
300 K, 6570 kPa, x1 = 0.4994 | 0.03101
325 K, 793 kPa, x1 = 0.2493 | 0.0234
325 K, 797 kPa, x1 = 0.7496 | 0.03345
325 K, 800 kPa, x1 = 0.4994 | 0.02831
325 K, 1350 kPa, x1 = 0.4994 | 0.02846
325 K, 1358 kPa, x1 = 0.7496 | 0.03366
325 K, 1420 kPa, x1 = 0.2493 | 0.02367
325 K, 1896 kPa, x1 = 0.4994 | 0.02871
325 K, 1920 kPa, x1 = 0.7496 | 0.0339
325 K, 2020 kPa, x1 = 0.2493 | 0.02398
325 K, 2434 kPa, x1 = 0.4994 | 0.02901
325 K, 2465 kPa, x1 = 0.7496 | 0.0342
325 K, 2600 kPa, x1 = 0.2493 | 0.02439
325 K, 2970 kPa, x1 = 0.4994 | 0.02933
325 K, 3020 kPa, x1 = 0.7496 | 0.0345
325 K, 3160 kPa, x1 = 0.2493 | 0.02478
325 K, 3440 kPa, x1 = 0.4994 | 0.02963
325 K, 3520 kPa, x1 = 0.7496 | 0.03477
325 K, 3685 kPa, x1 = 0.2493 | 0.02519
325 K, 3920 kPa, x1 = 0.4994 | 0.02999
325 K, 4040 kPa, x1 = 0.7496 | 0.03529
325 K, 4210 kPa, x1 = 0.2493 | 0.02561
325 K, 4555 kPa, x1 = 0.7496 | 0.03559
325 K, 4690 kPa, x1 = 0.2493 | 0.02615
325 K, 5040 kPa, x1 = 0.7496 | 0.03603
325 K, 5170 kPa, x1 = 0.2493 | 0.02675
325 K, 5200 kPa, x1 = 0.4994 | 0.03111
325 K, 5560 kPa, x1 = 0.7496 | 0.03638
325 K, 5625 kPa, x1 = 0.2493 | 0.02733
325 K, 6380 kPa, x1 = 0.4994 | 0.03222
325 K, 7500 kPa, x1 = 0.4994 | 0.03379
350 K, 860 kPa, x1 = 0.2493 | 0.026
350 K, 862 kPa, x1 = 0.7496 | 0.03707
350 K, 865 kPa, x1 = 0.4994 | 0.03135
350 K, 1310 kPa, x1 = 0.2493 | 0.02615
350 K, 1464 kPa, x1 = 0.4994 | 0.03154
350 K, 1605 kPa, x1 = 0.7496 | 0.03738
350 K, 1750 kPa, x1 = 0.2493 | 0.02631
350 K, 2054 kPa, x1 = 0.4994 | 0.03177
350 K, 2180 kPa, x1 = 0.2493 | 0.02656
350 K, 2340 kPa, x1 = 0.7496 | 0.03766
350 K, 2610 kPa, x1 = 0.2493 | 0.02669
350 K, 2660 kPa, x1 = 0.4994 | 0.03206
350 K, 3020 kPa, x1 = 0.2493 | 0.02694
350 K, 3035 kPa, x1 = 0.7496 | 0.03796
350 K, 3190 kPa, x1 = 0.4994 | 0.03224
350 K, 3440 kPa, x1 = 0.2493 | 0.02718
350 K, 3740 kPa, x1 = 0.7496 | 0.03813
350 K, 3760 kPa, x1 = 0.4994 | 0.03258
350 K, 3840 kPa, x1 = 0.2493 | 0.02747
350 K, 4220 kPa, x1 = 0.2493 | 0.02766
350 K, 4324 kPa, x1 = 0.4994 | 0.03282
350 K, 4410 kPa, x1 = 0.7496 | 0.03855
350 K, 4600 kPa, x1 = 0.2493 | 0.02799
350 K, 5140 kPa, x1 = 0.7496 | 0.039
350 K, 5145 kPa, x1 = 0.4994 | 0.03347
350 K, 5860 kPa, x1 = 0.7496 | 0.03958
350 K, 5920 kPa, x1 = 0.4994 | 0.03401
350 K, 6410 kPa, x1 = 0.7496 | 0.03989
350 K, 6670 kPa, x1 = 0.4994 | 0.03477
350 K, 7080 kPa, x1 = 0.7496 | 0.04053
